Legend:
Assay in all cases: Bliss excess, mean over the matrix (fraction); higher = more synergy
[1] = test system: EW-1 (Ewing's Sarcoma)
Outline: (§1)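 Cell lines in DMEM/F12 or RPMI with 10% FBS were plated in 1536-well plates, held 24 hours at 37°C, 5% CO2, then given two-drug dose matrices for 72 hours (DMSO typically 0.2%). Viability was read by CellTiter-Glo 2.0 luminescence and scaled as inhibition from 0 (vehicle wells) to 1 (blank wells). Combination Emax is the second-highest inhibition in the matrix; Bliss excess is observed combination effect minus expected EA + EB − EA·EB, EA and EB being single-agent effects.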

[2] = test system: HCC1500 (Breast Carcinoma)
Outline: as §1

[3] = test system: ME-180 (Cervical Carcinoma)
Outline: as §1

[4] = test system: KMRC-1 (Kidney Carcinoma)
Outline: as §1

[5] = test system: MV-4-11 (Acute Myeloid Leukemia)
Outline: as §1

[6] = test system: NCI-H1838 (Lung Adenocarcinoma)
Outline: as §1

[7] = test system: Ca-Ski (Cervical Carcinoma)
Outline: as §1

[8] = test system: A4-Fuk (B-Lymphoblastic Leukemia)
Outline: as §1

[9] = test system: ALL-SIL (T-Lymphoblastic Leukemia)
Outline: as §1

[10] = test system: NCI-H1355 (Lung Adenocarcinoma)
Outline: as §1

[11] = test system: OE33 (Esophageal Adenocarcinoma)
Outline: as §1

[12] = test system: HCC1937 (Breast Carcinoma)
Outline: as §1

[13] = test system: NCI-H522 (Lung Adenocarcinoma)
Outline: as §1

[14] = test system: SNU-387 (Hepatocellular Carcinoma)
Outline: as §1

[15] = test system: LC-1-sq (Squamous Cell Lung Carcinoma)
Outline: as §1

[16] = test system: SW872 (Other Solid Carcinomas)
Outline: as §1

[17] = test system: COLO-668 (Small Cell Lung Carcinoma)
Outline: as §1

[18] = test system: MOLT-4 (T-Lymphoblastic Leukemia)
Outline: as §1

[19] = test system: NCI-H1092 (Small Cell Lung Carcinoma)
Outline: as §1

[20] = test system: DU-145 (Prostate Carcinoma)
Outline: as §1

SMILES	Bliss excess [1]	Bliss excess [2]	Bliss excess [3]	Bliss excess [4]	Bliss excess [5]	Bliss excess [6]	Bliss excess [7]	Bliss excess [8]	Bliss excess [9]	Bliss excess [10]	Bliss excess [11]	Bliss excess [12]	Bliss excess [13]	Bliss excess [14]	Bliss excess [15]	Bliss excess [16]	Bliss excess [17]	Bliss excess [18]	Bliss excess [19]	Bliss excess [20]
COc1nnc2ccc(N3CCC(c4ccc(OCCN5CCN(C)C(=O)[C@H]5C)cc4)CC3)nn12 [AZD5153] + C=CCn1c(=O)c2cnc(Nc3ccc(N4CCN(C)CC4)cc3)nc2n1-c1cccc(C(C)(C)O)n1 [AZD1775] (first compound max 1 µM, partner max 1 µM)	-0.0484	0.0305	-0.022	-0.0108	-0.0114	-0.0531	0.0125	-0.109	-0.0289	0.0155	-0.0386	-0.0921	-0.0617	-0.107	-0.0288	-0.0374	-0.0349	0.0171	0.0051	-0.0286
COc1cccc(OCCCN)c1-c1cc(Nc2cnc(C#N)cn2)n[nH]1 [Prexasertib] + CCc1c2c(nc3ccc(O)cc13)-c1cc3c(c(=O)n1C2)COC(=O)[C@]3(O)CC [SN-38] (first compound max 1 µM, 7x7, partner max 0.3 µM)	-0.012	-0.0269	0.0232	-0.0247	-0.0107	-0.0001	0	-0.0592	-0.0093	0.0231	-0.0165	-0.011	0.163	0.0549	0.0039	-0.015	-0.0788	-0.0075	0.0354	-0.0423
CC(=O)c1c(C)c2cnc(Nc3ccc(N4CCNCC4)cn3)nc2n(C2CCCC2)c1=O [Palbociclib] + CC1(C)CCC(CN2CCN(c3ccc(C(=O)NS(=O)(=O)c4ccc(NCC5CCOCC5)c([N+](=O)[O-])c4)c(Oc4cnc5[nH]ccc5c4)c3)CC2)=C(c2ccc(Cl)cc2)C1 [Venetoclax] (first compound max 10 µM, 7x7, partner max 1 µM)	0.0441	-0.0899	-0.0622	-0.0653	-0.0213	0.0042	-0.0543	-0.0926	0.0428	-0.0031	-0.0458	-0.0578	-0.0428	-0.0558	-0.0161	-0.0244	-0.0554	-0.0654	-0.0224	-0.0406
Cc1c2c(nn1C)CSCc1cc(n(C)n1)CSc1cc(c3ccccc3c1)OCCCc1c(C(=O)O)n(C)c3c-2c(Cl)ccc13 [AZD5991] + C1CN(CCC1(C(=O)N[C@@H](CCO)C2=CC=C(C=C2)Cl)N)C3=NC=NC4=C3C=CN4 [Capivasertib] (first compound max 1 µM, 7x7, partner max 3 µM)	0.0232	0.0467	-0.028	-0.0076	-0.0089	0.0017	0.0269	-0.0011	-0.0384	-0.0016	-0.0328	-0.0108	0.0415	0.0124	-0.0015	0.0057	0.0516	0.0964	0.0204	0.007
CC1(C)CCC(CN2CCN(c3ccc(C(=O)NS(=O)(=O)c4ccc(NCC5CCOCC5)c([N+](=O)[O-])c4)c(Oc4cnc5[nH]ccc5c4)c3)CC2)=C(c2ccc(Cl)cc2)C1 [Venetoclax] + C=CCn1c(=O)c2cnc(Nc3ccc(N4CCN(C)CC4)cc3)nc2n1-c1cccc(C(C)(C)O)n1 [AZD1775] (first compound max 1 µM, partner max 1 µM)	-0.0191	0.114	-0.0001	-0.0126	-0.072	-0.0334	0.0449	-0.0009	0.0792	0.0069	-0.0144	-0.0744	0.0162	-0.0041	-0.0039	0.005	0.136	0.117	0.0018	-0.0098
NC1(C(=O)N[C@@H](CCO)c2ccc(Cl)cc2)CCN(c2ncnc3[nH]ccc23)CC1 [Capivasertib] + CCN(CCO)CCCOc1ccc2c(Nc3cc(CC(=O)Nc4cccc(F)c4)[nH]n3)ncnc2c1 [AZD2811] (first compound max 10 µM, 7x7, partner max 1 µM)	0.0388	0.0228	-0.0096	-0.0421	-0.0436	-0.0356	0.0121	-0.0161	-0.0631	0.045	-0.0137	0.0005	-0.0817	-0.0504	0.0488	-0.0384	0.0318	-0.0189	-0.0137	-0.0485
CS(=O)(=O)CCNCc1ccc(-c2ccc3ncnc(Nc4ccc(OCc5cccc(F)c5)c(Cl)c4)c3c2)o1 [Lapatinib] + C[C@@H](Oc1cc(-c2cnn(C3CCNCC3)c2)cnc1N)c1c(Cl)ccc(F)c1Cl [Crizotinib] (first compound max 10 µM, 7x7, partner max 10 µM)	-0.0239	0.0412	-0.0227	-0.0725	-0.0106	-0.0919	-0.042	-0.0407	0.0033	-0.0141	0.151	-0.0404	-0.0362	-0.0754	0.0171	-0.0069	-0.0594	-0.0084	0.0103	-0.0242
CC1(C)CCC(CN2CCN(c3ccc(C(=O)NS(=O)(=O)c4ccc(NCC5CCOCC5)c([N+](=O)[O-])c4)c(Oc4cnc5[nH]ccc5c4)c3)CC2)=C(c2ccc(Cl)cc2)C1 [Venetoclax] + Cc1cc2ncnn2cc1Nc1ncc2c(n1)n(C1CCOCC1)c(=O)n2C [AZD7648] (first compound max 1 µM, 7x7, partner max 10 µM)	-0.008	0.0586	0.0013	-0.0514	0.0477	0.0538	-0.0061	-0.0185	-0.0022	-0.0124	-0.0449	-0.0733	-0.0232	-0.0413	0.0004	-0.0599	0.0355	0.0142	0.0303	-0.0166
CC1(C)CCC(CN2CCN(c3ccc(C(=O)NS(=O)(=O)c4ccc(NCC5CCOCC5)c([N+](=O)[O-])c4)c(Oc4cnc5[nH]ccc5c4)c3)CC2)=C(c2ccc(Cl)cc2)C1 [Venetoclax] + C1CN(CCC1(C(=O)N[C@@H](CCO)C2=CC=C(C=C2)Cl)N)C3=NC=NC4=C3C=CN4 [Capivasertib] (first compound max 1 µM, 7x7, partner max 3 µM)	-0.0019	0.0321	-0.0015	-0.028	0.0474	-0.0097	-0.0153	-0.035	-0.0261	-0.0379	-0.0059	-0.0227	-0.0292	-0.0554	-0.0136	-0.0588	0.0066	0.0315	0.0236	-0.0493
CC(=O)Nc1cccc(-n2c(=O)n(C3CC3)c(=O)c3c(Nc4ccc(I)cc4F)n(C)c(=O)c(C)c32)c1 [Trametinib] + Cc1nc(-c2cn3c(n2)-c2ccc(-c4cnn(C(C)(C)C(N)=O)c4)cc2OCC3)n(C(C)C)n1 [Taselisib] (first compound max 1 µM, 7x7, partner max 10 µM)	0.038	0.0452	0.0713	0.0072	0.27	0.0104	0.184	0.127	0.267	0.0292	0.17	-0.0125	0.0504	0.185	0.24	0.0847	0.289	0.186	-0.0174	0.0241
NC1(C(=O)N[C@@H](CCO)c2ccc(Cl)cc2)CCN(c2ncnc3[nH]ccc23)CC1 [Capivasertib] + CC(=O)c1c(C)c2cnc(Nc3ccc(N4CCNCC4)cn3)nc2n(C2CCCC2)c1=O [Palbociclib] (first compound max 10 µM, 7x7, partner max 10 µM)	-0.0124	0.0017	-0.0638	-0.0272	-0.0164	0.0468	0.025	-0.0374	-0.0889	0.0107	-0.0055	-0.0236	-0.0696	-0.0515	-0.0208	0.0237	-0.0496	-0.0002	-0.0612	-0.0272
Cc1c2c(nn1C)CSCc1cc(n(C)n1)CSc1cc(c3ccccc3c1)OCCCc1c(C(=O)O)n(C)c3c-2c(Cl)ccc13 [AZD5991] + CN(C)CCCOc1ccc(-c2ccc3ncc4c(c3c2)n(C2CCOCC2)c(=O)n4C)cn1 [AZD0156] (first compound max 1 µM, 7x7, partner max 1 µM)	0.0051	0.0453	0.0231	-0.0412	-0.0395	0.043	0.0319	-0.0032	0.0049	-0.0298	-0.0227	0.0106	-0.0354	-0.0536	0.0103	0.0164	0.0135	-0.0058	0.0063	0.0146
